In assay [1] the target is α4β7 integrin (Homo sapiens (Human), UniProt P13612+P26010). Put plainly: Integrin Adhesion Assay: Protocol 1 (MAdCAM-coated plate, RPMI-8866 cells, CellTiter GLO readout). The assay is classed as cell-based. The procedure: α4β7 and α4β1 inhibition was evaluated in vitro using at least one of the following procedures:
Integrin Adhesion Assay: Protocol 1
MAdCAM (R&D Systems, 0.1 ug) was diluted in 50 μL PBS, added to each well of an opaque ELISA plate (Thermo), and incubated overnight at 4° C. Coated plates were washed once with PBS and then blocked with 200 μL of assay buffer (10 mM HEPES, 150 mM NaCl, 1 mM MnCl2, 0.1 mM CaCl2), 1% BSA) for 1 hour at 37° C. and 5% CO2. After incubation, buffer was aspirated from the plates and 50 μL of fresh assay buffer is added. Compounds were added by a compouns dispenser (Tecan) and DMSO concentration was normalized to 1% across each plate. 50 μL of RPMI-8866 cells (2×10^6 per mL) were added to each well and the plates were incubated for 1 hour at 37° C. and 5% CO2. After incubation, plates were allowed to cool to RT for 10 minutes before being washed four times in assay buffer by an automated plate washer (BioTek). After washing, 100 μL of a 1:1 mixture of assay buffer and CellTiter GLO 2.0 reagent (Promega) were added to each well. Plates were mixed for 2 minutes at 1000 rpm and then allowed to incubate an additional 10 minutes before reading out luminescence on a Tecan Spark plate reader. Raw data was converted to percent inhibition based on DMSO only and control compound wells, and curves were analyzed by 4-parameter fit within Dotmatics software.

Assay [2] deals with α4β1 integrin (Homo sapiens (Human), UniProt P05556+P13612). Put plainly: Integrin Adhesion Assay: Protocol 5 (VCAM-coated plate, RPMI-8866 cells with stable LOF mutation of the ITGB7 gene). The assay is classed as cell-based. Put shortly:
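RPMI-8866 B cells with CRISPR/Cas9 ITGB7 knockout (clonal, verified by flow cytometry) adhered to VCAM-coated wells for 1 h at 37° C in HEPES/NaCl buffer with 1 mM MnCl2, 0.1 mM CaCl2, 1% BSA, 1% DMSO. Bound cells quantified by CellTiter-Glo luminescence after washing; % inhibition versus DMSO and control, 4-parameter fit.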

Setting [3] is: RPMI-8866 cells with stable LOF mutation of the ITGB7 gene, read-out: Mean IC50 α4β1 KO^b.

Read-outs that look alike come from different tables or passages of the source.

Chain of α4β1 integrin (P13612 34-1032): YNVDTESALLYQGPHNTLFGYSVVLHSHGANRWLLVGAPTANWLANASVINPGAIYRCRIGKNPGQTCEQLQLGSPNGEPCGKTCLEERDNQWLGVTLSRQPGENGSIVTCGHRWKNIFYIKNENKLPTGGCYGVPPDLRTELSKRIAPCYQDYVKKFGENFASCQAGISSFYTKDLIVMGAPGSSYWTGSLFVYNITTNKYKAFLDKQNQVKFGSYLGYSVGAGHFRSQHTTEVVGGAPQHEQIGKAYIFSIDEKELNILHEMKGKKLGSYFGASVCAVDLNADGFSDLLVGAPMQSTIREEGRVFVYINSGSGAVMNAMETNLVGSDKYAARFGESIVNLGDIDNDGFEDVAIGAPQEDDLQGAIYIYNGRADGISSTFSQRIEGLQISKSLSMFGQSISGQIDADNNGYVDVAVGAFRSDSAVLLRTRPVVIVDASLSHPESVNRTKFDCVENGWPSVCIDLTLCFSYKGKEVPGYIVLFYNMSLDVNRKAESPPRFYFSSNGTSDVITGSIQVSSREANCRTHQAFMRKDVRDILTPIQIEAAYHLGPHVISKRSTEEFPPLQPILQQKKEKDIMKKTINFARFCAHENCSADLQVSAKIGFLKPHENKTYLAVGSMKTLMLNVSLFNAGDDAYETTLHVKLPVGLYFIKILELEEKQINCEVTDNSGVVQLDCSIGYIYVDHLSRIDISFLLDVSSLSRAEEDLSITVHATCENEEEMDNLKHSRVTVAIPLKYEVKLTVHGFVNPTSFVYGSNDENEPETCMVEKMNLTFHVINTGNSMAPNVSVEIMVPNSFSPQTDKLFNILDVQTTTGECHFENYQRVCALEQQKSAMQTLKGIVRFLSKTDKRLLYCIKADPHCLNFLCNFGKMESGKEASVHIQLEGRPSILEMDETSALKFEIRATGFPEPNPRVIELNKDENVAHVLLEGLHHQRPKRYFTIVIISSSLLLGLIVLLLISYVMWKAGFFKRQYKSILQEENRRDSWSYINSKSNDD
Chain of α4β1 integrin (P05556 21-798): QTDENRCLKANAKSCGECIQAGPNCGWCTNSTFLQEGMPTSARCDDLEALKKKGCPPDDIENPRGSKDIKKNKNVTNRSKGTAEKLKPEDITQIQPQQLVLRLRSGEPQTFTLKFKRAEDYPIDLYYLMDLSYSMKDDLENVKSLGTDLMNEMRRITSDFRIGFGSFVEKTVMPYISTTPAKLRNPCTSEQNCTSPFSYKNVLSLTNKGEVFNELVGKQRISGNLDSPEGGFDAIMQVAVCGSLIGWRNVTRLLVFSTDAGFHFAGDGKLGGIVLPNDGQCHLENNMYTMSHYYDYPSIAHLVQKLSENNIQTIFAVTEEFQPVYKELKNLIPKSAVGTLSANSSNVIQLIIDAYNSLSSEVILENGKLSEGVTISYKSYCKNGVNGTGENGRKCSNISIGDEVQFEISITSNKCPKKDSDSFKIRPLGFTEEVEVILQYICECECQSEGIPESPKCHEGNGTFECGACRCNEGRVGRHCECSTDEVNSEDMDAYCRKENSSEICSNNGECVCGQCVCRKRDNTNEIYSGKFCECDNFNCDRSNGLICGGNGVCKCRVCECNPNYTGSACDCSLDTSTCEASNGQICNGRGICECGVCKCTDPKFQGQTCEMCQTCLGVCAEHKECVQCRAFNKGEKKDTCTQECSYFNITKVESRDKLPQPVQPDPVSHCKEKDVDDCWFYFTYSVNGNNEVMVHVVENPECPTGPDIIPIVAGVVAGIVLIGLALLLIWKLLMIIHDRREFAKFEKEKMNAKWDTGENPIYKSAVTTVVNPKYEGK
Chain of α4β7 integrin (P13612 34-1032): as the sequence (P13612 34-1032) above
Chain of α4β7 integrin (P26010 20-798): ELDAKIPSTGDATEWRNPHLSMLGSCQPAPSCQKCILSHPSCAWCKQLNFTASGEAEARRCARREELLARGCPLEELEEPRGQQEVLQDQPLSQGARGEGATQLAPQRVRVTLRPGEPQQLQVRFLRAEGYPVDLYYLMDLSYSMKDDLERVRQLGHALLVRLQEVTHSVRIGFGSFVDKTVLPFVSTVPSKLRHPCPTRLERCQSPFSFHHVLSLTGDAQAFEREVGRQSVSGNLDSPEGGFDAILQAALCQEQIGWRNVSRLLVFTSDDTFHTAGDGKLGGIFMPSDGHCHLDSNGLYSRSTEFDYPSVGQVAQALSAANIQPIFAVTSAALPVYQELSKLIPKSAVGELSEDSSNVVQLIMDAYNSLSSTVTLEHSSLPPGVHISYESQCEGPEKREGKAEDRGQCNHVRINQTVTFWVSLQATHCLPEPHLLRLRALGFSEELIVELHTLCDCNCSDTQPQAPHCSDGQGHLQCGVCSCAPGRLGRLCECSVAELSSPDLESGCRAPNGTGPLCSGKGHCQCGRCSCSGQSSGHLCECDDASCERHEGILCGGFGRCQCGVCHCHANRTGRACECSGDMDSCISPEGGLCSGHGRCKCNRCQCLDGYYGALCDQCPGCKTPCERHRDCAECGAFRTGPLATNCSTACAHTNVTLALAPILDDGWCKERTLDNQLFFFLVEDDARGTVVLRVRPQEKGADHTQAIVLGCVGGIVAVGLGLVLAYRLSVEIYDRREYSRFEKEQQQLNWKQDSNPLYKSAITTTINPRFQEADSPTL

In the case of `Cc1ccnc(C)c1-c1ccc(F)c(C(=O)N[C@@H](Cc2cccc3c(-c4c(C(F)(F)F)c5ccccc5n(C)c4=O)cccc23)C(=O)O)c1F` [Compound 315], the concentration for half-maximal inhibition (IC50) in assay [1] is 10 to 100 nM; in assay [2] (setting [3]), over 1000 nM.
With `Cn1c(=O)c(-c2cccc3c(C[C@H](NC(=O)c4c(F)ccc(-c5cccnc5)c4F)C(=O)O)cccc23)c(C(F)(F)F)c2ccccc21` [Compound 312], the IC50 was 10 to 100 nM in assay [1] and over 1000 nM in assay [2] (setting [3]).
The like results for `Cn1c(=O)c(-c2cccc3c(C[C@H](NC(=O)c4c(F)cc(N(CC(F)(F)F)C5COC5)cc4F)C(=O)O)cccc23)c(C(F)(F)F)c2ccccc21` [Compound 380] were, in that order, 10 to 100 nM and over 1000 nM.
In the case of `Cn1c(=O)c(-c2cccc3c(C[C@H](NC(=O)c4c(F)cc(N5CCCC[C@@H]5C(F)(F)F)cc4F)C(=O)O)cccc23)c(C(F)(F)F)c2ccccc21` [Compound 318], the IC50 in assay [1] was 100 to 1000 nM; in assay [2] (setting [3]) it was over 1000 nM.
For `O=C(N[C@@H](Cc1cccc2c(-c3cccc4ccncc34)cccc12)C(=O)O)c1c(F)cccc1CN1CCCC1` [Compound 356], in that order: 10 to 100 nM and over 1000 nM.
Take `CN(C)c1ccc2c(c1)c(C(F)(F)F)c(-c1cccc3c(C[C@H](NC(=O)c4c(F)cc(N5CCOC[C@@H]5C(F)(F)F)cc4F)C(=O)O)cccc13)c(=O)n2C` [Compound 302]: the 50% inhibitory concentration (IC50) was 10 to 100 nM in assay [1] and over 1000 nM in assay [2] (setting [3]).
`CN(C)Cc1ccc2c(-c3cccc4c(C[C@H](NC(=O)[C@]5(C)CC[C@H](N6CCOC[C@@H]6C(F)(F)F)CC5)C(=O)O)cccc34)nccc2c1` [Compound 582]: the IC50 in assay [1] is 10 to 100 nM; in assay [2] (setting [3]) it was over 1000 nM.
`Cc1cccc(C)c1-c1nc(C)c(C(=O)N[C@@H](Cc2cccc3c(-c4c(C(F)(F)F)c5ccccc5n(C)c4=O)cccc23)C(=O)O)n1C` [Compound 330]: the IC50 was 10 to 100 nM in assay [1] and over 1000 nM in assay [2] (setting [3]).
With `Cn1c(=O)c(-c2cccc3c(C[C@H](NC(=O)c4c(F)cc(N(CC(F)(F)F)CC(F)(F)F)cc4F)C(=O)O)cccc23)c(C(F)(F)F)c2ccccc21` [Compound 324], the IC50 in assay [1] was 10 to 100 nM; in assay [2] (setting [3]), over 1000 nM.
For the compound `CN1CCN(c2cc(F)c(C(=O)N[C@@H](Cc3cccc4c(-c5c(C(F)(F)F)c6ccccc6n(C)c5=O)cccc34)C(=O)O)c(F)c2)CC1` [Compound 350], the results for the IC50 in assay [1] and in assay [2] (setting [3]) were 10 to 100 nM and over 1000 nM, respectively.
As for `Cc1cccc(C)c1-c1cc(F)c(C(=O)N[C@@H](Cc2cccc3c(-n4c(=O)cc(CCN5CC(F)C5)n(C)c4=O)cccc23)C(=O)O)c(F)c1` [Compound 1057], the half-maximal inhibitory concentration (IC50) was 10 to 100 nM in assay [1] (protocol not given) and over 1000 nM in assay [2] (Protocol 5, RPMI-8866 cells with LOF mutation of ITGB7, VCAM, read-out: Mean IC50 α4β1 KO).
In the case of `CN1CCN(Cc2cc(N3CCOC[C@@H]3C(F)(F)F)cc(F)c2C(=O)N[C@@H](Cc2cccc3c(-c4c(C(F)(F)F)c5ccccc5n(C)c4=O)cccc23)C(=O)O)CC1` [Compound 360], the values for the IC50 in assay [1] and in assay [2] (setting [3]) were under 10 nM and over 1000 nM, respectively.
The like results for `O=C(N[C@@H](Cc1cccc2c(-c3cccc4ccncc34)cccc12)C(=O)O)c1c(F)cc(N2CCOC[C@@H]2C(F)(F)F)cc1CN1CCC(F)(F)CC1` [Compound 301] were, in that order, 10 to 100 nM and over 1000 nM.
Regarding `CN(C)Cc1cc(-c2cccc3c(C[C@H](NC(=O)c4c(F)cc(N5CCOC[C@@H]5C(F)(F)F)cc4CN4CCOCC4)C(=O)O)cccc23)c2cnccc2c1` [Compound 294], the IC50 was under 10 nM in assay [1] and over 1000 nM in assay [2] (setting [3]).
As to `CN(C)Cc1ccc2c(-c3cccc4c(C[C@H](NC(=O)[C@]5(C)CC[C@@H](N6CCOC[C@@H]6C(F)(F)F)CC5)C(=O)O)cccc34)nccc2c1` [Compound 581], the values for the IC50 in assay [1] and in assay [2] (setting [3]) were 10 to 100 nM and over 1000 nM, respectively.
In the case of `Cn1c(=O)c(-c2cccc3c(C[C@H](NC(=O)c4c(F)ccc(-c5ccccn5)c4F)C(=O)O)cccc23)c(C(F)(F)F)c2ccccc21` [Compound 313], the IC50 in assay [1] was 10 to 100 nM; in assay [2] (setting [3]) it was over 1000 nM.
Regarding `COCCN(C)c1cc(F)c(C(=O)N[C@@H](Cc2cccc3c(-c4c(C(F)(F)F)c5ccccc5n(C)c4=O)cccc23)C(=O)O)c(F)c1` [Compound 384], the IC50 was 100 to 1000 nM in assay [1] and over 1000 nM in assay [2] (setting [3]).
On to `Cn1c(C(F)(F)F)cc(C(F)(F)F)c(-c2cccc3c(C[C@H](NC(=O)[C@]4(C)CC[C@H](N5CCOC[C@@H]5C(F)(F)F)CC4)C(=O)O)cccc23)c1=O` [Compound 408], for which the IC50 was 10 to 100 nM in assay [1] and over 1000 nM in assay [2] (setting [3]).
On to `CN(C)Cc1cccc2c(-c3cccc4c(C[C@H](NC(=O)c5c(F)cc(N6CCOC[C@@H]6C(F)(F)F)cc5CN5CCOCC5)C(=O)O)cccc34)nccc12` [Compound 298], for which the IC50 is under 10 nM in assay [1] and over 1000 nM in assay [2] (setting [3]).
Consider `Cc1cc(N2CCOC[C@@H]2C(F)(F)F)cc(F)c1C(=O)N[C@@H](Cc1cccc2c(-c3c(C(F)(F)F)c4ccccc4n(C)c3=O)cccc12)C(=O)O` [Compound 361], for which the IC50 is 10 to 100 nM in assay [1] and over 1000 nM in assay [2] (setting [3]).
Regarding `Cn1c(=O)c(-c2cccc3c(C[C@H](NC(=O)c4c(F)cc(N(CCC(F)(F)F)C5COC5)cc4F)C(=O)O)cccc23)c(C(F)(F)F)c2ccccc21` [Compound 392], the results for the IC50 in assay [1] and in assay [2] (setting [3]) were 10 to 100 nM and over 1000 nM, respectively.
For `CN1CCN(Cc2cccc(F)c2C(=O)N[C@@H](Cc2cccc3c(-c4c(C(F)(F)F)c5ccccc5n(C)c4=O)cccc23)C(=O)O)CC1` [Compound 353], the IC50 is 10 to 100 nM in assay [1] and over 1000 nM in assay [2] (setting [3]).
For `Cn1c(=O)c(-c2cccc3c(C[C@H](NC(=O)c4c(F)cc(N5CCOC[C@@H]5C(F)(F)F)cc4CN4CCCC4)C(=O)O)cccc23)c(C(F)(F)F)c2ccccc21` [Compound 359], the IC50 in assay [1] is under 10 nM; in assay [2] (setting [3]), over 1000 nM.
For the compound `Cn1c(=O)c(-c2cccc3c(C[C@H](NC(=O)C4(C)CCN(C5COC5)CC4)C(=O)O)cccc23)c(C(F)(F)F)c2ccccc21` [Compound 363], the IC50 in assay [1] is 10 to 100 nM; in assay [2] (setting [3]) it was over 1000 nM.
For `CO[C@H](C)c1cc(F)c(C(=O)N[C@@H](Cc2cccc3c(-c4c(C(F)(F)F)c5ccccc5n(C)c4=O)cccc23)C(=O)O)c(F)c1` [Compound 375], in that order: 100 to 1000 nM and over 1000 nM.
For the compound `CN(C)Cc1cccc2c(-c3cccc4c(C[C@H](NC(=O)[C@]5(C)CC[C@@H](N6CCOC[C@@H]6C(F)(F)F)CC5)C(=O)O)cccc34)nccc12` [Compound 418], the IC50 in assay [1] was under 10 nM; in assay [2] (setting [3]), over 1000 nM.
For the compound `CN(C)Cc1cc(-c2cccc3c(C[C@H](NC(=O)c4c(F)cc(N5CCOC[C@@H]5C(F)(F)F)cc4F)C(=O)O)cccc23)c2cnccc2c1` [Compound 445], the values for the IC50 in assay [1] and in assay [2] (setting [3]) were under 10 nM and over 1000 nM, respectively.
For `Cn1c(=O)c(-c2cccc3c(C[C@H](NC(=O)C4(C)CCN([C@H]5CCOC5)CC4)C(=O)O)cccc23)c(C(F)(F)F)c2ccccc21` [Compound 413], in that order: 10 to 100 nM and over 1000 nM.
`CN(C)Cc1cccc2c(-c3cccc4c(C[C@H](NC(=O)C5(C)CCN(CC(F)(F)F)CC5)C(=O)O)cccc34)nccc12` [Compound 420]: the IC50 in assay [1] is 10 to 100 nM; in assay [2] (setting [3]) it was over 1000 nM.
On to `Cn1c(=O)c(-c2cccc3c(C[C@H](NC(=O)C4(C)CCN(C5CCOCC5)CC4)C(=O)O)cccc23)c(C(F)(F)F)c2ccccc21` [Compound 362], for which the IC50 in assay [1] is 10 to 100 nM; in assay [2] (setting [3]), over 1000 nM.
`CN(C)Cc1ccc2c(-c3cccc4c(C[C@H](NC(=O)[C@]5(C)CC[C@@H](N6CCC(F)(F)CC6)CC5)C(=O)O)cccc34)nccc2c1` [Compound 585]: the IC50 in assay [1] is under 10 nM; in assay [2] (setting [3]), over 1000 nM.
Take `Cc1cncc(C)c1-c1ccc(F)c(C(=O)N[C@@H](Cc2cccc3c(-c4c(C(F)(F)F)c5ccccc5n(C)c4=O)cccc23)C(=O)O)c1F` [Compound 314]: the IC50 in assay [1] is 10 to 100 nM; in assay [2] (setting [3]), over 1000 nM.
As to `Cn1c(=O)c(-c2cccc3c(C[C@H](NC(=O)c4c(F)cc(N5CCOC[C@@H]5C(F)(F)F)cc4F)C(=O)O)cccc23)c(C(F)(F)F)c2ccccc21` [Compound 317], the IC50 is 10 to 100 nM in assay [1] and over 1000 nM in assay [2] (setting [3]).
As for `Cn1c(=O)c(-c2cccc3c(C[C@H](NC(=O)[C@]4(C)CC[C@@H](N5CCOC[C@@H]5C(F)(F)F)CC4)C(=O)O)cccc23)c(C(F)(F)F)c2ccccc21` [Compound 346], the IC50 in assay [1] is 10 to 100 nM; in assay [2] (setting [3]), over 1000 nM.
Take `Cn1c(C(F)(F)F)cc(C(F)(F)F)c(-c2cccc3c(C[C@H](NC(=O)[C@]4(C)CC[C@@H](N5CCC(F)(F)CC5)CC4)C(=O)O)cccc23)c1=O` (single isomer, unassigned) [Compound 405]: the IC50 is 10 to 100 nM in assay [1] and over 1000 nM in assay [2] (setting [3]).
